Assay results taken from ChEMBL document CHEMBL4842359, “1,3-Diarylpyrazolyl-acylsulfonamides as Potent Anti-tuberculosis Agents Targeting Cell Wall Biosynthesis in Mycobacterium tuberculosis” (J Med Chem, 2021).
≈ marks a conversion by molar mass, not a printed value.

Key:
[1] = Thermodynamic solubility of compound at pH 7.4 aqueous phosphate buffer
[2] = tested on: Mycobacterium tuberculosis; assay: microbe, parasite or virus in culture; settings: H37Rv, 336 h
Description: Antimycobacterial activity against Mycobacterium tuberculosis H37Rv in presence of middlebrook 7H9/glucose/BSA/tyloxapol medium measured after 14 days by bioluminescence reporter assay

[3] = AUC (0 to t) in iv dosed C57BL/6 mouse measured up to 24 hrs by LC-MS/MS analysis; assay type: ADME, organism-based; set-up: time <=24; settings: in vivo
[4] = Volume of distribution in iv dosed C57BL/6 mouse measured up to 24 hrs by LC-MS/MS analysis; assay type: ADME, organism-based; settings: in vivo
[5] = Lipophilicity, logD of the compound at pH 7.4 by HPLC-DAD analysis; assay type: physicochemical; settings: buffer
[6] = Unbound clearance in iv dosed C57BL/6 mouse measured up to 24 hrs by LC-MS/MS analysis; assay type: ADME, organism-based; settings: in vivo
[7] = Plasma protein binding in human assessed as unbound fraction at 5 uM by LC-MS/MS analysis; assay type: ADME, cell-free; settings: 5 µM
[8] = Terminal half life in iv dosed C57BL/6 mouse measured up to 24 hrs by LC-MS/MS analysis; assay type: ADME, organism-based; settings: mouse, in vivo, 24 h
[9] = Metabolic stability in rat liver microsomes assessed as compound remaining at 1 uM by LC-MS/MS analysis; assay type: ADME, Microsome; settings: microsomes, 1 µM
[10] = Metabolic stability in mouse liver microsomes assessed as compound remaining at 1 uM by LC-MS/MS analysis; assay type: ADME, Microsome; settings: microsomes, 1 µM
[11] = Metabolic stability in human liver microsomes assessed as compound remaining at 1 uM by LC-MS/MS analysis; assay type: ADME, Microsome; settings: microsomes, 1 µM
[12] = tested on: Mycobacterium tuberculosis; assay: microbe, parasite or virus in culture; settings: H37RvMA, 336 h
Description: Antimycobacterial activity against Mycobacterium tuberculosis H37RvMA in presence of middlebrook 7H9/glucose/BSA/tyloxapol medium measured for 2 weeks by bioluminescence reporter assay

SMILES	solubility thermodynamic [1] [µM]	MIC [2] [µM]	further results
O=C(CCc1cn(-c2ccc(Br)cc2)nc1-c1ccc(Cl)cc1)NS(=O)(=O)C1CC1	5 (≈ 2.54 µg/mL)	> 50	–
CS(=O)(=O)NC(=O)OCc1cn(-c2ccc(Cl)cc2)nc1-c1ccncc1	–	123 (≈ 50 µg/mL)	AUCt [3]: 22 µmol·min/L; Vd ([4]; C57BL/6, mouse, read-out: Vd): 0.1 L/kg; logD [5]: 2.73; CL free [6]: > 1200 L/h/kg; Fu [7]: 0.03 fraction; beta t1/2 [8]: 5.8 h; Stabilty [9]: 97%; Stabilty [10]: 98%; Stabilty [11]: 97%
Clc1ccc(-c2nn(-c3ccc(Br)cc3)cc2CCc2nnn[nH]2)cc1	150 (≈ 64.5 µg/mL)	> 50	–
CS(=O)(=O)NC(=O)NCc1cc(-c2ccc(Br)cc2)oc1-c1ccncc1	25 (≈ 11.3 µg/mL)	–	AUCt [3]: 20 µmol·min/L; logD [5]: 0.36; CL free [6]: > 1200 L/h/kg; Stabilty [9]: 87%; Stabilty [10]: 85%; Stabilty [11]: 98%
CS(=O)(=O)NCCCc1cn(-c2ccc(Br)cc2)nc1-c1ccc(Cl)cc1	< 5	> 50	–
CS(=O)(=O)NC(=O)CCc1cn(-c2ccc(Br)cc2)nc1-c1ccc([N+](=O)[O-])cc1	< 5	–	–
CC(Cc1cn(-c2ccc(Cl)cc2)nc1-c1ccncc1)C(=O)NS(C)(=O)=O (stereo not given)	190 (≈ 79.6 µg/mL)	> 50	–
CS(=O)(=O)NC(=O)CCc1cn(-c2ccc(Br)cc2)nc1Cc1ccccc1	200 (≈ 92.5 µg/mL)	> 50	–
CS(=O)(=O)NC(=O)/C=C/c1cn(-c2ccc(Br)cc2)nc1-c1ccncc1	115 (≈ 51.4 µg/mL)	12 (≈ 5.37 µg/mL)	–
CCc1cc(C(N)=S)ccn1 [ETHIONAMIDE]	–	–	MIC [12]: 15.6 µM (≈ 2.59 µg/mL)
CS(=O)(=O)NC(=O)CCc1cn(-c2ccc(Br)cc2)nc1C1CCNCC1	196 (≈ 89.3 µg/mL)	> 50	–
CCS(=O)(=O)NC(=O)CCc1cn(-c2ccc(Br)cc2)nc1-c1ccc(Cl)cc1	10 (≈ 4.97 µg/mL)	–	–
CS(=O)(=O)NC(=O)CCc1cn(-c2ccc(Br)cc2)nc1C1CCOCC1	200 (≈ 91.3 µg/mL)	9.4 (≈ 4.29 µg/mL)	AUCt [3]: 31 µmol·min/L; Vd ([4]; mouse, 24 h): 29.3 L/kg; logD [5]: 0.55; CL free [6]: 124.3 L/h/kg; Fu [7]: 0.07 fraction; beta t1/2 [8]: 2.3 h; Stabilty [9]: 83%; Stabilty [10]: 77%; Stabilty [11]: 86%
CNC(=O)CCc1cn(-c2ccc(Br)cc2)nc1-c1ccc(Cl)cc1	< 5	> 50	–
CS(=O)(=O)NC(=O)CCn1nc(-c2ccc(Cl)cc2)cc1-c1ccc(Cl)cc1	200 (≈ 87.7 µg/mL)	> 50	–
CS(=O)(=O)NC(=O)CCc1cc(-c2ccc(Cl)cc2)nn1-c1ccc(F)cc1	195 (≈ 82.3 µg/mL)	5.5 (≈ 2.32 µg/mL)	–
CS(=O)(=O)NC(=O)CCc1cn(-c2ccc(Br)cc2)nc1-c1cccc(Cl)c1	165 (≈ 79.7 µg/mL)	–	–
CS(=O)(=O)NC(=O)CCc1cn(-c2ccc(Br)cc2)nc1C1CCCCC1	60 (≈ 27.3 µg/mL)	9.4 (≈ 4.27 µg/mL)	–
CS(=O)(=O)NC(=O)C1CC1c1cn(-c2ccc(Br)cc2)nc1-c1ccncc1 (stereo not given)	155 (≈ 71.5 µg/mL)	12.5 (≈ 5.77 µg/mL)	–
CS(=O)(=O)NC(=O)C1CC1c1cn(-c2ccc(Cl)cc2)nc1-c1ccncc1 (stereo not given)	200 (≈ 83.4 µg/mL)	19 (≈ 7.92 µg/mL)	AUCt [3]: 21 µmol·min/L; logD [5]: 1.06; CL free [6]: > 1200 L/h/kg; Fu [7]: 0.01 fraction; beta t1/2 [8]: 0.9 h; Stabilty [9]: 92%; Stabilty [10]: 96%; Stabilty [11]: > 99%
CS(=O)(=O)NC(=O)CCc1cn(-c2ccc(Br)cc2)nc1C1CCN(C=O)CC1	200 (≈ 96.7 µg/mL)	50 (≈ 24.2 µg/mL)	–
CS(=O)(=O)NC(=O)CCc1nn(-c2ccc(Br)cc2)cc1-c1ccc(Cl)cc1	135 (≈ 65.2 µg/mL)	37 (≈ 17.9 µg/mL)	–
CS(=O)(=O)NC(=O)CCc1cn(-c2ccc(C#N)cc2)nc1-c1ccc(Cl)cc1	75 (≈ 32.2 µg/mL)	25 (≈ 10.7 µg/mL)	–
CS(=O)(=O)NC(=O)CCc1cn(-c2ccc(Br)cc2)nc1-c1cnccn1	196 (≈ 88.3 µg/mL)	20 (≈ 9.01 µg/mL)	–
CS(=O)(=O)NC(=O)CCc1cn(-c2ccncc2)nc1-c1ccc(Cl)cc1	190 (≈ 76.9 µg/mL)	> 50	–
CS(=O)(=O)NC(=O)CCc1cn(-c2ccc(Br)cc2)nc1-c1ccc(N)cc1	160 (≈ 74.1 µg/mL)	25 (≈ 11.6 µg/mL)	–
CS(=O)(=O)NC(=O)CCc1oc(-c2ccc(Cl)cc2)nc1-c1ccc(Cl)cc1	200 (≈ 87.9 µg/mL)	37 (≈ 16.3 µg/mL)	–
